Test results: publication PMC9643865, “Bromo-protopine, a novel protopine derivative, alleviates tau pathology by activating chaperone-mediated autophagy for Alzheimer’s disease therapy” (Frontiers in Molecular Biosciences, 2022)

Legend:
[1] = target: T1, HDAC6 (Homo sapiens, UniProt Q9UBN7); assay: HDAC6 deacetylase fluorometric assay with pure HDAC6 protein; assay type: biochemical; conditions: read-out: 50% inhibitory concentration (IC50) on HDAC6 activity
T1 construct: purchased Enzo Life Sciences BML-AK516
T1 sequence (Q9UBN7 1-1215): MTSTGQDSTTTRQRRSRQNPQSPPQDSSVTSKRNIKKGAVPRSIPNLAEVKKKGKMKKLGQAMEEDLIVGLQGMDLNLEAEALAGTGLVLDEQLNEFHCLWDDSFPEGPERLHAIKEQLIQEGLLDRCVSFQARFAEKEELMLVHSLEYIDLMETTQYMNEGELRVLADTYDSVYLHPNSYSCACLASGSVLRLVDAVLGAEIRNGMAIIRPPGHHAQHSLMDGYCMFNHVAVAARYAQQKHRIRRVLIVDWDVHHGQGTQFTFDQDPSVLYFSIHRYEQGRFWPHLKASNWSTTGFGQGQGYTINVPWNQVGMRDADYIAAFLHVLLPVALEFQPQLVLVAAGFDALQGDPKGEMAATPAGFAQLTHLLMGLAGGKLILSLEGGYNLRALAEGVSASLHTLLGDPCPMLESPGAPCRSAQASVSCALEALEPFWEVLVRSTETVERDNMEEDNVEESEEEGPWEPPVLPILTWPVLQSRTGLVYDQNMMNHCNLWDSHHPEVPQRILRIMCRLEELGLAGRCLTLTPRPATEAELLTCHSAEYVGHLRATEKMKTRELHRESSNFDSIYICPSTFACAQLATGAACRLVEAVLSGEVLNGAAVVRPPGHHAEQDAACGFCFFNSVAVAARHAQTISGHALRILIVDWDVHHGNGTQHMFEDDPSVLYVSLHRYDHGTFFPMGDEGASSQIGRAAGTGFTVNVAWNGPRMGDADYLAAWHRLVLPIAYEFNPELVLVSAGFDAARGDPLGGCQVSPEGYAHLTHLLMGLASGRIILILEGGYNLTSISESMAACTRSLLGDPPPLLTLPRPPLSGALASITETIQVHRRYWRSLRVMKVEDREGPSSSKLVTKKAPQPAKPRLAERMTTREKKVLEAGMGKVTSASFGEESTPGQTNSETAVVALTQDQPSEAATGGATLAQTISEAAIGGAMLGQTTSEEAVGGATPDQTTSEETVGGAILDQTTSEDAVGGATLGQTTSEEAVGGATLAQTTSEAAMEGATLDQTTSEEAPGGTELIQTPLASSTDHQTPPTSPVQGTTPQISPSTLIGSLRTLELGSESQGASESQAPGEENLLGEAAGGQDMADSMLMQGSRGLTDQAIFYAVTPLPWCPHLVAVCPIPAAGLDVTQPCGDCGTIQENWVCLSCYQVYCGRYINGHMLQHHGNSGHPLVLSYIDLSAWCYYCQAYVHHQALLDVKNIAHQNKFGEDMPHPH
Experimental: Inhibition of HDAC6 activity was performed in accordance with the manufacturer’s protocol. Briefly, PRO-Br at various concentrations in HDAC Assay buffer II were prepared. The appropriate substrate solution provided in the kit was added, and the reaction plate was incubated at 37°C. The reaction was stopped by the addition of Developer II, and the fluorometric reading was measured at 440 nm using a fluorometer (Wallac EnVision).
HDAC6 is a cytoplasmic deacetylase that targets key proteins such as α-tubulin and HSP90. […] Therefore, inhibition of HDAC6 activity could be a promising therapeutic strategy for AD. […] To determine the binding of PRO/PRO-Br to HDAC6, we used molecular docking, and the binding affinity was determined from the binding free energies (Kcal/mol). From the docking study, the binding free energy of PRO-Br and PRO with HDAC6 was calculated to be −8.4 kcal/mol and −8.1 kcal/mol (Figures 5C–F), respectively.

[2] = tested on: HT22 cells; assay: LAMP2A / HSC70 immunocytochemistry and immunoblotting; assay type: cell-based, mouse; conditions: immunocytochemistry, 12.5 and 25 μM, 24 h
Experimental: SHSY5Y cells stably-expressing mutant tau (SHSYP301L) were cultured in DMEM/F12 + 15% FBS, 3 μg/ml Blasticidin S HCl, and 1X PSN. N2A mouse neuroblastoma and mouse hippocampal neuronal (HT22) cells were cultured in DMEM+10% FBS, and 1X PSN. Sterile complete medium containing PRO-Br was added to the cells, and they were then incubated for 24 h at an optimum temperature of 37°C in a sterile 5% CO2 incubator.
After PRO-Br treatment, cells were solubilised using cold RIPA lysis buffer (9803, Life Technologies), containing protease and phosphatase inhibitor tablets. Cells were sonicated and centrifuged at 14000 rpm for 15 min. Total protein concentration was determined by BCA protein assay, and the samples were separated on SDS-PAGE and transferred to PVDF membranes. The membranes were blocked, washed, and incubated with primary antibodies (Table 1), and incubated at 4°C, overnight. The membranes were further incubated with the required dilutions of secondary antibody for 1 h, at RT. The chemiluminescent signals were captured using x-ray film in a darkroom, with an appropriate chemiluminescent substrate kit (ThermoFisher Scientific, United States). Films were scanned, and the relative intensities of the signals were analyzed using ImageJ software.
HT22 cells were cultured in sterile 24-well culture dishes containing 14 mm cover-glass. Cells were treated with PRO-Br (12.5 and 25 μM), and DMSO (0.1%), for 24 h. Cells were fixed with paraformaldehyde (4%), permeabilized with triton-X-100 (0.1%), and blocked with BSA (2%). LAMP2A antibody (1:500), and HSC70 antibody (1:500) was added to the processed cells and incubated overnight at four°C. Alexa Fluor® 488 (green) and Alexa Fluor® 594 (red) secondary antibodies (1:400) were added and incubated for 1.5 h at room temperature. FluorSave reagent (Merck Millipore, United States) was added, then cover-slipped, and images were captured by a Leica confocal imaging system.

IC50 [1]: 2.36 µM
Compound: CN1CCc2cc3c(cc2C(=O)Cc2ccc4c(c2C1)OCO4)OCO3 [PRO, Protopine]
expression of LAMP2A [2]: did not enhance LAMP2A protein expression
